Results from patent US8492347B2, “Peptide for induction of immune tolerance as treatment for systemic lupus erythematosus” (The Regents of the University of California, priority 2007, dated 2013).
Where no end group is shown, it is not given here. [ ]: non-standard residue; d: D form.

What was measured:
BWF1 mice [1] = assay: proteinuria (Azostix) in mice fed peptide; assay type: in vivo; conditions: 250 ug fed 5 days out of each 30 from age 10 weeks; for proteinuria vs saline: at 34 weeks
Description: Anti-DNA antibodies were measured by ELISA and proteinuria by Azostix (see, e.g. Yang et al., J. I., 2003, 171: 2142-2153).
We also observed the clinical effects of feeding either D- or L-peptides at the low, medium and high doses of each. Because mRNA analysis of mesenteric lymph nodes provided evidence that high dose D-peptide would induce tolerance, we began new experiments to compare high dose (250 ug) feedings of D-peptide to the same dose of L-peptide. A control group was fed saline on the same schedule as the peptide feedings, which is daily for 5 days out of each 30 days. Each group contains 14 mice; treatment was begun at age 10 weeks. Observed effects on anti-DNA are as follows. […] Note that the saline control group is lower than the positive control anti-DNA, which is serum from BWF1 mice with heavy proteinuria and imminent death. Thus, the saline control has not reached the expected high level at this point but should do so in the next 2 months.
Observed effects on Proteinuria are as follows.

BWF1 mice [2] = assay: cytokine and Foxp3 mRNA in mesenteric lymph nodes after peptide feeding; assay type: in vivo; conditions: mesenteric lymph nodes one week after feeding
Description: Cytokine measurement in the supernatant of cultured spleen cells was done with BD OptEIA™ ELISA kits (BD Biosciences and Bio legends Inc., San Diego, Calif.) for IFNγ, IL-2, TGFβ and IL-10. Intracellular mRNA encoding IFNγ, IL-10, Foxp3 and TGFβ was analyzed by real-time RT PCR. GAPDH was used as a house-keeping gene for normalization.
Real-time PCR was analyzed according to art accepted protocols (see, e.g. Hahn et al., Ann NY Acad Sci 2005; 1051:433-41). Briefly, total RNA was isolated with TRIzol (Invitrogen Life Technologies, Carlsbad, Calif.) as per manufacturer's protocol. Reverse transcription used 50 ng of total RNA. The oligonucleotide sequences used for the primers and TaqMan probes are as follows; IFN-γ forward, 5′ TGA GAC AGA AGT TCT GGG CTTCT 3′ (SEQ ID NO: 9); reverse, 5′ CAAGAT GCA GTG TGT AGC GTTCA 3′ (SEQ ID NO: 10): probe, 6FAM TCC TGCGGCCTAGCTCTGAGA TAMRA (SEQ ID NO: 11). IL-10 forward, 5′ CAGCCGGGAAGACAATAACTG 3′ (SEQ ID NO: 12); reverse, 5′ CCGCAGCTCTAGGAGCATGT 3′ (SEQ ID NO: 13); probe 6FAM ACCCACTTCCCAGTCGGCCAGAG TAMRA. TGFβ forward, 5′ AAACGGAAGCGCATCGAA 3′ (SEQ ID NO: 14); reverse, 5′ […] 3′ (SEQ ID NO: 15), probe 6FAM […] TAMRA (SEQ ID NO: 16). Foxp3 forward, 5′[…] 3′ (SEQ ID NO: 17); reverse, 5′ […] 3′ (SEQ ID NO: 18); probe 6FAM […] TAMRA (SEQ ID NO: 19). The amplification primers were at 900 nM and the probe at 200 nM. A passive reference dye (ROX) provided an internal standard for normalization of FAM fluorescence, correcting for fluctuations due to volume changes. For relative quantitation, a standard curve was constructed for each primer and probe set, using total RNA. RNA was isolated from spleen cells of 10-13 week-old naïve or tolerized mice. Spleen cells from 2 to 3 mice in each group were pooled for each experimental group. For some experiments, CD4^+ and CD8^+ cells were isolated by positive selection using micro beads with Miltenyi AutoMACS as described above. A ribosomal RNA control primer and probe set (Applied Biosystems) were used for normalization purposes. […]

Sequence	mean level of proteinuria (zero to 4+) (BWF1 mice [1]; at 24 weeks of age)	proteinuria vs saline (BWF1 mice [1]; listed as D-peptide)	mRNA pattern: increase in Foxp3 and TGFb with decrease in IFNg (BWF1 mice [2]; high dose 250 ug fed, listed as D-peptide)	proteinuria vs saline (BWF1 mice [1]; listed as L-peptide)	mRNA pattern: increase in Foxp3 and TGFb with decrease in IFNg (BWF1 mice [2]; high dose 250 ug fed, listed as L-peptide)	mRNA pattern: increase in Foxp3 and TGFb with decrease in IFNg (BWF1 mice [2]; middle dose 100 ug fed, listed as L-peptide)
FIEWNKLRFRQGLEW ([dF][dI][dE][dW][dN][dK][dL][dR][dF][dR][dQ]G[dL][dE][dW]) [D-pCons]	no differences in mean level of proteinuria	lower in the D-peptide group (p=0.18)	All desired features			
FIEWNKLRFRQGLEW [L-pCons]				lower in the L-peptide group (p=0.01)	all desired features	all desired features
